Structures can show the parent of a compound that is named as a salt.
test system: NCI-H460; details: read-out: Cytotoxicity test on H460 cells: IC50; H460 cells; printed as 42 nM±6

In the case of CC[C@@]1(OC(=O)CCCBr)C(=O)OCc2c1cc1n(c2=O)Cc2c-1nc1ccccc1c2/C=N/OC(C)(C)C [ST2599, (E)-7-tert-butoxyiminomethyl-20-O-(4-bromo)-butyryl-camptothecin], the IC50 is reported as 42 nM.

same assay, conditions: read-out: NCI-H460 IC50; 2 h exposure, then 72 h recovery; concentration inhibiting 50% of cell survival; ALLFIT software

In order of rising IC50:
1. CC[C@@]1(OC(=O)CCC(=O)NCC(=O)OC(C)(C)C)C(=O)OCc2c1cc1n(c2=O)Cc2c-1nc1ccccc1c2C=NOC(C)(C)C [ST1616, 7-ter-butoxyiminomethyl-20-O-(terbutylglycyl)succinyl-camptothecin]  4 nM
2. CCC1(OC(=O)CCC(=O)NCCN(C)C)C(=O)OCc2c1cc1n(c2=O)Cc2c-1nc1ccccc1c2C=NOC(C)(C)C (stereo not shown) [ST1657, (E)-7-tert-butoxyiminomethyl-20-O-[2-(dimethylamino)ethylamino]succinyl-camptothecin hydrochloride]  12 nM
3. CCC1(OC(=O)CCC[N+](C)(C)C)C(=O)OCc2c1cc1n(c2=O)Cc2c-1nc1ccccc1c2C=NOC(C)(C)C (stereo not shown) [ST2200, (E)-7-tert-butoxyiminomethyl-20-O-(4-trimethylammonium)-butanoyl-camptothecin bromide]  17 nM
4. 7-ter-butoxyiminomethyl-20-O-(2-methoxy-phenyl-glycyl)succinyl-camptothecin [ST1617]  29 nM
5. (E)-7-tert-butoxyiminomethyl-20-O-(4-trimethyl-ammonium-3-hydroxy)butanoyl-camptothecin bromide [ST2204]  41 nM
6. 20-O-(benzylglycyl)succinyl-camptothecin [ST1451]  150 nM
7. 20-O-(2-methoxyphenylglycyl)succinyl-camptothecin [ST1454]  160 nM
8. 20-O-(terbutylglycyl)succinyl-camptothecin bromide [ST1453]  260 nM
9. CC[C@@]1(OC(=O)CCC(=O)NCC(=O)O)C(=O)OCc2c1cc1n(c2=O)Cc2cc3ccccc3nc2-1 [ST1452, 20-O-(glycyl)succinyl-camptothecin]  1600 nM
